Experimental data reported in patent US11478451B1, “Macrocyclic chlorine substituted indole derivatives” (Bayer Aktiengesellschaft, priority 2017, dated 2022).
Counter-ions that a name gives are not always drawn.

Legend:
MV-4-11 cells = test: Antiproliferation assay (CellTiter-Glo, 72 h), MV-4-11; format: cell-based; conditions: IC50, median; MV-4-11, 72 h; read-out: Antiproli MV-4-11 [M] median
Procedure, shortened: (§1)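 A reference plate measured at day 0 set the time-zero baseline. Treated plates were read by CellTiter-Glo luminescence after 72 h of compound exposure at 37°C in a humidified incubator.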

AMO-1 cells = test: Antiproliferation assay (CellTiter-Glo, 72 h), AMO-1; format: cell-based; conditions: IC50, median; AMO-1, 72 h; read-out: Antiproli AMO-1 [M] median
Procedure, shortened: as §1

HMC-1-8 cells = test: Antiproliferation assay (CellTiter-Glo, 72 h), HMC-1-8; format: cell-based; conditions: IC50, median; HMC-1-8, 72 h; read-out: Antiproli HMC-1-8 [M] median
Procedure, shortened: as §1

MCL-1 = MCL-1 (Homo sapiens (Human), UniProt Q07820, K194A/K197A/R201A); test: Protein-compound interaction assay (SPR assay); format: binding; conditions: equilibrium dissociation constant, geometric mean, SPR 25° C.
Description: Protein-Compound Interaction Assay (SPR Assay)
The ability of the compounds described in this invention to bind to MCL-1 may be determined using surface plasmon resonance (SPR). This allows for the quantification of binding in terms of the equilibrium dissociation constant (KD [M]), as well as association and dissociation rate constants (kon [1/M 1/s] and koff [1/s], respectively). The measurements may be performed using Biacore® T200 or Biacore® S200 instruments (GE Healthcare).
Subsequently, a solution of 1 M ethanolamine-HCl (GE Healthcare) was injected to block unreacted groups, resulting in approximately 400-2500 response units (RU) of immobilized protein. A reference surface was generated by treatment with NHS-EDC and ethanolamine-HCl.
The double-referenced sensorgrams were fit to a simple reversible Langmuir 1:1 reaction mechanism as implemented in the Biacore® T200 and S200 evaluation software (T200 evaluation software version 2.0 and S200 evaluation software version 1.0, GE Healthcare).

Chain of MCL-1 (Q07820 whole entry K194A/K197A/R201A, looked up): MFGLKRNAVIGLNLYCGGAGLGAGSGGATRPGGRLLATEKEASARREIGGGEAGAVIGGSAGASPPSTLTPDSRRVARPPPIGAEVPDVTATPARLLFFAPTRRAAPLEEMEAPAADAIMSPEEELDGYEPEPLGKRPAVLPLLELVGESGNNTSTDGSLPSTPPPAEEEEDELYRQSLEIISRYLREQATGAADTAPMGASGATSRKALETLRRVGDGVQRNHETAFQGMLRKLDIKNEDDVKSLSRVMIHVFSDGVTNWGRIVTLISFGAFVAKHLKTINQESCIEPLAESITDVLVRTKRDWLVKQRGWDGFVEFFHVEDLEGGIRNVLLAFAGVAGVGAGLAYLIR

## Cc1c2c(nn1C)CN(C)CCCCn1c(C(=O)O)c(CCCOc3cccc4cc(F)ccc34)c3ccc(Cl)c-2c31 (single isomer, unassigned; enantiomer 1) [Example 31, (+)-4-chloro-7-{3-[(6-fluoronaphthalen-1-yl)oxy]propyl}-2,3,14-trimethyl-10,11,12,13,14,15-hexahydro-2H-pyrazolo[3′,4′:8,9][1,6]diazacycloundecino[10,11,1-hi]indole-8-carboxylic acid-N-ethylethanamine salt (Enantiomer 1)]
MV-4-11 cells
  IC50: 2.75e-07 M
AMO-1 cells
  IC50: 1.7e-07 M
HMC-1-8 cells
  IC50: 1.9e-06 M
MCL-1
  Kd: 0.00043 µM
